Reference: patent US10370433B2, “Compositions and methods for diagnosis and treatment of cancer” (BIONTECH AG, priority 2015, dated 2019)
Positions of bridges follow the written chain, without caps; N, C: chain ends. Residues, ends and D or L forms follow the SMILES beside them.

Target: T1, recombinant human Seprase (rhuSeprase) (Homo sapiens, UniProt Q12884)
T1 construct: named pCEP4-IgKappa-huSeprase-coCHO_26-760aa-H6 and used for the generation of recombinant soluble human Seprase (rhuSeprase); mouse Ig kappa-chain V-J2-C secretion signal (N, cleaved yes); made in house; host or cells: FreeStyle CHO-S cells (transient transfection; purified from supernatant by Ni-chelate and SEC)
T1 sequence (Q12884 26-760): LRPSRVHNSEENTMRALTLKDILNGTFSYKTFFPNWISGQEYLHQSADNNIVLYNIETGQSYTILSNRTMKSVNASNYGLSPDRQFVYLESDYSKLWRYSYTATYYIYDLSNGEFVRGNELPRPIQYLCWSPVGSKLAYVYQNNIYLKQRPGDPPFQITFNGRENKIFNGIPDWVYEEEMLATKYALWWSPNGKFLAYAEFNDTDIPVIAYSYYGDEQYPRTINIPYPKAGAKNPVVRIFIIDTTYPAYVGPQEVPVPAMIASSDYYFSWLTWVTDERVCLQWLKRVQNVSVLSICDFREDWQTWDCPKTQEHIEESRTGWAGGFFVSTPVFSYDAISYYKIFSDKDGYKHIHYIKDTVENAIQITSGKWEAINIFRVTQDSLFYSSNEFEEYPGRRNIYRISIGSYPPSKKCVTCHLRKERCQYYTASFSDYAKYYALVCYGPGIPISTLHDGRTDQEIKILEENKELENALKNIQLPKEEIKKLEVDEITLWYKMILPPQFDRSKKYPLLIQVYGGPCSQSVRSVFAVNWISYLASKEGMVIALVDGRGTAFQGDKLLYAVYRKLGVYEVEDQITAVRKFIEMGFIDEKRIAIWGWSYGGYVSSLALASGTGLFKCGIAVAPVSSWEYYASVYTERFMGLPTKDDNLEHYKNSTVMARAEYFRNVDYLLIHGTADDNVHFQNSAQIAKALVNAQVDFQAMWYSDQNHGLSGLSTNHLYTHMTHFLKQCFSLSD
Experiment: Surface plasmon resonance (Biacore T100) on immobilized rhuSeprase
Format: binding
Details: for kon: read-out: ka (1/Ms)

Row | SMILES | kd | kon | offrate, times slower compared to MC-FA-012
1 | CC[C@H](C)[C@@H]1NC(=O)[C@@H]2CSSC[C@H](NC(=O)[C@H](C)NC(=O)CNC(=O)[C@H](CO)NC(=O)CN)C(=O)N3CCC[C@H]3C(=O)N[C@@H](Cc3ccc(O)cc3)C(=O)N[C@@H]([C@@H](C)O)C(=O)N[C@@H](CC(N)=O)C(=O)N[C@@H](Cc3c[nH]c4ccccc34)C(=O)N[C@@H](Cc3c[nH]cn3)C(=O)N3CCC[C@H]3C(=O)NCC(=O)N[C@@H](CCCNC(=N)N)C(=O)NCC(=O)N3CCC[C@H]3C(=O)N[C@@H](C)C(=O)N[C@H]3CSSC[C@H](NC1=O)C(=O)N[C@@H](CCCNC(=N)N)C(=O)NCC(=O)N[C@@H](CC(N)=O)C(=O)NCC(=O)N[C@@H](Cc1ccc(O)cc1)C(=O)N[C@H](C(=O)NCC(=O)O)CSSC[C@H](NC(=O)[C@H](CC(=O)O)NC(=O)[C@H](CO)NC(=O)[C@H](CC(=O)O)NC(=O)[C@H](CCCNC(=N)N)NC(=O)[C@H](CCCNC(=N)N)NC3=O)C(=O)N1CCC[C@H]1C(=O)NCC(=O)N[C@@H](CCCNC(=N)N)C(=O)N2 [FA8-G12] (H-GSGACPYTNWHPGRGPACRRDSDCPGRCICRGNGYCG-OH; disulfide 5-28, 18-30, 24-36; N-terminus and C-terminus assumed) | 0.3171 s⁻¹ | 651000 M⁻¹ s⁻¹ | –
2 | CC(C)C[C@@H]1NC(=O)[C@@H]2CSSC[C@@H](C(=O)NCC(=O)O)NC(=O)[C@H](Cc3ccccc3)NC(=O)CNC(=O)[C@H](CC(N)=O)NC(=O)[C@@H]3CCCN3C(=O)CNC(=O)[C@@H]3CSSC[C@H](NC(=O)[C@H](CC(=O)O)NC(=O)[C@@H]4CCCN4C(=O)CNC(=O)[C@H](CCCNC(=N)N)NC(=O)CNC(=O)[C@@H]4CCCN4C(=O)[C@H]([C@@H](C)O)NC(=O)[C@H](Cc4c[nH]c5ccccc45)NC(=O)[C@H](CC(N)=O)NC(=O)[C@H](CO)NC(=O)[C@H](Cc4ccc(O)cc4)NC(=O)[C@@H]4CCCN4C(=O)[C@@H](NC(=O)[C@H](C)NC(=O)CNC(=O)[C@H](CO)NC(=O)CN)CSSC[C@H](NC(=O)CNC(=O)[C@H](C)NC1=O)C(=O)N[C@@H](C(C)C)C(=O)N3)C(=O)N[C@@H](CO)C(=O)N[C@@H](CCC(N)=O)C(=O)N[C@@H](CC(=O)O)C(=O)N[C@@H](CO)C(=O)N[C@@H](CC(=O)O)C(=O)N2 [ET-FA-012] (H-GSGACPYSNWTPGRGPDCSQDSDCLAGCVCGPNGFCG-OH; disulfide 5-28, 18-30, 24-36; N-terminus and C-terminus assumed) | 0.8528 s⁻¹ | 608000 M⁻¹ s⁻¹ | –
3 | CC[C@H](C)[C@@H]1NC(=O)[C@@H]2CSSC[C@H](NC(=O)[C@H](C)NC(=O)CN)C(=O)N3CCC[C@H]3C(=O)N[C@@H](Cc3ccc(O)cc3)C(=O)N[C@@H](CO)C(=O)N[C@@H](CC(N)=O)C(=O)N[C@@H](Cc3c[nH]c4ccccc34)C(=O)N[C@@H]([C@@H](C)O)C(=O)N3CCC[C@H]3C(=O)NCC(=O)N[C@@H](CCCNC(=N)N)C(=O)NCC(=O)N3CCC[C@H]3C(=O)N[C@@H](CC(=O)O)C(=O)N[C@H]3CSSC[C@H](NC1=O)C(=O)N[C@@H](CCCNC(=N)N)C(=O)NCC(=O)N[C@@H](CC(N)=O)C(=O)NCC(=O)N[C@@H](Cc1ccc(O)cc1)C(=O)N[C@H](C(=O)NCC(=O)O)CSSC[C@H](NC(=O)[C@H](CC(=O)O)NC(=O)[C@H](CO)NC(=O)[C@H](CC(=O)O)NC(=O)[C@H](CCCNC(=N)N)NC(=O)[C@H](CCCNC(=N)N)NC3=O)C(=O)N1CCC[C@H]1C(=O)NCC(=O)N[C@@H](CCCNC(=N)N)C(=O)N2 [MC-FA-012] (H-GACPYSNWTPGRGPDCRRDSDCPGRCICRGNGYCG-OH; disulfide 3-26, 16-28, 22-34; N-terminus and C-terminus assumed) | – | 408000 M⁻¹ s⁻¹ | –
4 | CC[C@H](C)[C@@H]1NC(=O)[C@@H]2CSSC[C@H](NC(=O)[C@H](C)NC(=O)CNC(=O)[C@H](CO)NC(=O)CNC(=O)CON=CC(=O)NCCCC[C@H](NC(=O)[C@H](CO)NC(=O)CNC(=O)[C@H](CO)NC(=O)CNC(=O)[C@H](CCCCNC(=O)C=NOCC(=O)NCC(=O)N[C@@H](CO)C(=O)NCC(=O)N[C@@H](C)C(=O)N[C@H]3CSSC[C@@H]4NC(=O)[C@H](CCCNC(=N)N)NC(=O)CNC(=O)[C@@H]5CCCN5C(=O)[C@@H]5CSSC[C@@H](C(=O)NCC(=O)O)NC(=O)[C@H](Cc6ccc(O)cc6)NC(=O)CNC(=O)[C@H](CC(N)=O)NC(=O)CNC(=O)[C@H](CCCNC(=N)N)NC(=O)[C@H](CSSC[C@H](NC(=O)[C@H](CC(=O)O)NC(=O)[C@@H]6CCCN6C(=O)CNC(=O)[C@H](CCCNC(=N)N)NC(=O)CNC(=O)[C@@H]6CCCN6C(=O)[C@H]([C@@H](C)O)NC(=O)[C@H](Cc6c[nH]c7ccccc67)NC(=O)[C@H](CC(N)=O)NC(=O)[C@H](CO)NC(=O)[C@H](Cc6ccc(O)cc6)NC(=O)[C@@H]6CCCN6C3=O)C(=O)N[C@@H](CCCNC(=N)N)C(=O)N[C@@H](CCCNC(=N)N)C(=O)N[C@@H](CC(=O)O)C(=O)N[C@@H](CO)C(=O)N[C@@H](CC(=O)O)C(=O)N5)NC(=O)[C@H]([C@@H](C)CC)NC4=O)NC(=O)[C@H](CO)NC(=O)CNC(=O)[C@H](CO)NC(=O)CNC(=O)[C@H](CCCCNC(=O)C=NOCC(=O)NCC(=O)N[C@@H](CO)C(=O)NCC(=O)N[C@@H](C)C(=O)N[C@H]3CSSC[C@@H]4NC(=O)[C@H](CCCNC(=N)N)NC(=O)CNC(=O)[C@@H]5CCCN5C(=O)[C@@H]5CSSC[C@@H](C(=O)NCC(=O)O)NC(=O)[C@H](Cc6ccc(O)cc6)NC(=O)CNC(=O)[C@H](CC(N)=O)NC(=O)CNC(=O)[C@H](CCCNC(=N)N)NC(=O)[C@H](CSSC[C@H](NC(=O)[C@H](CC(=O)O)NC(=O)[C@@H]6CCCN6C(=O)CNC(=O)[C@H](CCCNC(=N)N)NC(=O)CNC(=O)[C@@H]6CCCN6C(=O)[C@H]([C@@H](C)O)NC(=O)[C@H](Cc6c[nH]c7ccccc67)NC(=O)[C@H](CC(N)=O)NC(=O)[C@H](CO)NC(=O)[C@H](Cc6ccc(O)cc6)NC(=O)[C@@H]6CCCN6C3=O)C(=O)N[C@@H](CCCNC(=N)N)C(=O)N[C@@H](CCCNC(=N)N)C(=O)N[C@@H](CC(=O)O)C(=O)N[C@@H](CO)C(=O)N[C@@H](CC(=O)O)C(=O)N5)NC(=O)[C@H]([C@@H](C)CC)NC4=O)NC(=O)[C@H](CO)NC(=O)CNC(=O)[C@H](CO)NC(=O)CNC(=O)CN3CCN(CC(=O)O)CCN(CC(=O)O)CCN(CC(=O)O)CC3)C(=O)O)C(=O)N3CCC[C@H]3C(=O)N[C@@H](Cc3ccc(O)cc3)C(=O)N[C@@H](CO)C(=O)N[C@@H](CC(N)=O)C(=O)N[C@@H](Cc3c[nH]c4ccccc34)C(=O)N[C@@H]([C@@H](C)O)C(=O)N3CCC[C@H]3C(=O)NCC(=O)N[C@@H](CCCNC(=N)N)C(=O)NCC(=O)N3CCC[C@H]3C(=O)N[C@@H](CC(=O)O)C(=O)N[C@H]3CSSC[C@H](NC1=O)C(=O)N[C@@H](CCCNC(=N)N)C(=O)NCC(=O)N[C@@H](CC(N)=O)C(=O)NCC(=O)N[C@@H](Cc1ccc(O)cc1)C(=O)N[C@H](C(=O)NCC(=O)O)CSSC[C@H](NC(=O)[C@H](CC(=O)O)NC(=O)[C@H](CO)NC(=O)[C@H](CC(=O)O)NC(=O)[C@H](CCCNC(=N)N)NC(=O)[C@H](CCCNC(=N)N)NC3=O)C(=O)N1CCC[C@H]1C(=O)NCC(=O)N[C@@H](CCCNC(=N)N)C(=O)N2 (single isomer, unassigned) [DOTA-(MC-FA-012)3] | – | 2.11e+07 M⁻¹ s⁻¹ | around 530 times
